The text below walks through data of patent publication US7776844B2, “N-(phosphonoalkyl)-amino acids, derivatives thereof and compositions and methods of use” (priority 2006, dated 2010).

Structures are written as SMILES. Like-named read-outs stand apart in the source and are kept apart here.

The test system of experiment [1] is chronic plaque psoriasis. Briefly: Topical treatment of chronic plaque psoriasis lesion, clinical evaluation. The experiment is classed as in vivo. Conditions: Homo sapiens, read-out: improvement in contrast to untreated or vehicle control, clinical evaluation. As for the experimental part:
(§1) The present invention will now be described in more detail with reference to the following non-limiting examples. In the initial tests for comparative studies, a control vehicle was always included. It was discovered that all the vehicle controls gave the same results as that of the untreated skin sites; no detectable effects of the controls have been found as judged by clinical evaluation.
(§2) For subjective disorders such as pain, itch or the like, the therapeutic effects were evaluated or judged by the subjects or patients; for example, if the pain or itch had disappeared within hours or days. For other detectable symptoms or syndromes, the therapeutic effects or improvements were evaluated or judged by medical professionals.
A subject had chronic plaque psoriasis with erythema, moderately thick and silvery scales. The subject topically applied twice daily the above white cream containing 5% N-(phosphonomethyl)-glycine ethyl ester to one psoriatic lesion for two weeks. At the end of two weeks, the erythema and silvery scales improved substantially, and the treated skin had 50% improvement in contrast to the untreated or vehicle control as judged by clinical evaluation.
A subject had chronic plaque psoriasis with erythema, moderately thick and silvery scales. The subject topically applied twice daily the above white cream containing 10% N-(phosphonomethyl)-L-proline to one psoriatic lesion for two weeks. At the end of two weeks, the erythema and silvery scales improved very substantially, and the treated skin had 75% improvement in contrast to the untreated or vehicle control as judged by clinical evaluation.
A subject had chronic plaque psoriasis with erythema, moderately thick and silvery scales. The subject topically applied twice daily the above white cream containing 5% N-(phosphonomethyl)-glycine propyl ester to one psoriatic lesion for two weeks. At the end of two weeks, the erythema and silvery scales improved very substantially, and the treated skin had 75% improvement in contrast to the untreated or vehicle control as judged by clinical evaluation.
A subject had chronic plaque psoriasis with erythema, moderately thick and silvery scales. The subject topically applied twice daily the above white cream containing 5% N-(phosphonomethyl)-glycine isopropyl ester to one psoriatic lesion for a week. At the end of one week, the erythema and silvery scales improved substantially, and the treated skin had 50% improvement in contrast to the untreated or vehicle control as judged by clinical evaluation.
A subject had chronic plaque psoriasis with erythema, moderately thick and silvery scales. The subject topically applied twice daily the above white cream containing 8% N-(phosphonomethyl)-glycinamide to one psoriatic lesion for three weeks. At the end of three weeks, the erythema and silvery scales disappeared almost completely, and the treated skin had 90% improvement in contrast to the untreated or vehicle control as judged by clinical evaluation.
A subject had chronic plaque psoriasis with erythema, moderately thick and silvery scales. The subject topically applied twice daily the above white cream containing 5% N-(phosphonomethyl)-L-tyrosine ethyl ester to one psoriatic lesion for two weeks. At the end of two weeks, the erythema and silvery scales improved noticeably and the treated skin had 25% improvement in contrast to the untreated or vehicle control as judged by clinical evaluation.
A subject had chronic plaque psoriasis with erythema, moderately thick and silvery scales. The subject topically applied twice daily the above white cream containing 10% N-(phosphonomethyl)-D-4-hydroxyphenylglycine to one psoriatic lesion for two weeks. […]

For experiment [2], the system named is hyperpigmented dark skin. The experiment in a line: Topical skin lightening of hyperpigmented dark skin, clinical evaluation. The experiment is classed as in vivo, human. How it is done:
as §1, §2
A subject who had hyperpigmented dark skin, topically applied 5% N-(phosphonomethyl)-DL-asparagine cream prepared according to Example 7 to an involved skin site twice daily for four weeks. […] The treated site was 25% lighter in skin color in contrast to the untreated or vehicle control as judged by clinical evaluation. After four weeks of topical application, the treated site had substantial reduction in skin pigmentation. The treated site was 50% lighter in contrast to the untreated or vehicle control in skin color as judged by clinical evaluation.
A subject who had hyperpigmented dark skin, topically applied the above 5% N-(phosphonomethyl)-DL-asparagine solution to an involved skin site once every other day with occlusion for ten days. […] The treated site was 25% lighter in skin color as judged by clinical evaluation. After ten days of topical application, the treated site had substantial reduction in skin pigmentation. The treated site was 50% lighter in skin color in contrast to the untreated or vehicle control as judged by clinical evaluation.
A subject who had hyperpigmented dark skin, topically applied the above 5% N-(phosphonomethyl)-creatine solution to an involved skin site once every other day with occlusion for two weeks. […] The treated site was 25% lighter in skin color in contrast to the untreated or vehicle control as judged by clinical evaluation. After two weeks of topical application, the treated site had very substantial reduction in skin pigmentation. The treated site was 75% lighter in skin color in contrast to the untreated or vehicle control as judged by clinical evaluation.
A subject who had hyperpigmented dark skin, topically applied the above 5% N-(phosphonomethyl)-glycinamide solution to an involved skin site once every other day with occlusion for two weeks. […] The treated site was 25% lighter in skin color in contrast to the untreated or vehicle control as judged by clinical evaluation. After two weeks of topical application, the treated site had substantial reduction in skin pigmentation. The treated site was 50% lighter in skin color in contrast to the untreated or vehicle control as judged by clinical evaluation.
A subject who had hyperpigmented dark skin, topically applied the above 5% N-(phosphonomethyl)-L-glutamine solution to an involved skin site once every other day with occlusion for two weeks. After two weeks of topical application, the treated site had substantial reduction in skin pigmentation. The treated site had 50% lighter in skin color in contrast to the untreated or vehicle control as judged by clinical evaluation.

Experiment [3] concerns X-linked ichthyosis with severe dry skin. Briefly: Topical treatment of X-linked ichthyosis / severe dry skin, clinical evaluation. The experiment is classed as in vivo. Conditions: Homo sapiens, read-out: improvement in contrast to untreated or vehicle control, clinical evaluation.
From the text: For example, human subjects having severe dry skin or ichthyosis, topically applied 1%-5% N-(phosphonomethyl)-glycine creams to lesions for 2 to 3 weeks. After 2 to 3 weeks of topical application, the thick and scaly skin disappeared and the skin became smooth and normal in appearance. Clinical evaluation was judged to be 90% to 100% improvement compared to the untreated condition or when using a vehicle control.
as §1, §2
N-(phosphonomethyl)-glycine (5 g) was suspended in water (30 ml) and propylene glycol (10 ml), and concentrated ammonium hydroxide (2 ml) was added with stirring. The suspension became a clear solution, and was mixed with hydrophilic ointment (oil-in-water emulsion, 53 g). The white cream thus formulated had pH 3.8 and contained 5% N-(phosphonomethyl)-glycine. A subject who had X-linked ichthyosis with severe dry skin, having thick and rough skin with adherent scales, topically applied the above 5% N-(phosphonomethyl)-glycine cream to an involved skin site twice daily for two weeks. After one week of topical application, the adherent scales disappeared, and the skin became smooth and had 50% improvement in contrast to the untreated or vehicle control as judged by clinical evaluation. After two weeks of topical application, the treated skin became normal in appearance, and had 100% improvement in contrast to the untreated or vehicle control as judged by clinical evaluation.
A subject who had X-linked ichthyosis with severe dry skin, having thick and rough skin with adherent scales, topically applied the above 5% N-(phosphonomethyl)imino-diacetic acid cream to an involved skin site twice daily for two weeks. After one week of topical application, most adherent scales disappeared and the skin had 50% improvement in contrast to the untreated or vehicle control as judged by clinical evaluation. After two weeks of topical application, the scales disappeared completely and the treated skin became smooth, and had 90% improvement in contrast to the untreated or vehicle control as judged by clinical evaluation.
A subject who had X-linked ichthyosis with severe dry skin, having thick and rough skin with adherent scales, topically applied the above 5% N-(phosphonomethyl)-L-tyrosine cream to an involved skin site twice daily for 12 days. After 12 days of topical application, most adherent scales disappeared and the skin became smooth, and had 75% improvement in contrast to the untreated or vehicle control as judged by clinical evaluation.
A subject who had X-linked ichthyosis having thick and rough skin with adherent scales, topically applied the 5% N-(phosphonomethyl)-DL-asparagine cream to an involved skin site twice daily for three weeks. After one week of topical application, most adherent scales disappeared and the treated site appeared smooth. The skin had 75% improvement in contrast to the untreated or vehicle control as judged by clinical evaluation. After three weeks of topical application, the scales disappeared completely and the treated site felt smooth and normal in appearance. The skin had 100% improvement in contrast to the untreated or vehicle control as judged by clinical evaluation. […]

Experiment [4] concerns itchy eczema. Briefly: Topical relief of itch in itchy eczema, judged by subject. The experiment is classed as in vivo, human. Conditions: for therapeutic evaluation, effective for immediate relief of itch: single topical application. How it is done: as §1, §2
A subject, having itchy eczema on their right thigh, topically applied the above 8% N-(phosphonomethyl)-L-proline ethyl ester cream. […] Therapeutic evaluation was judged to be 100% effective in contrast to the untreated or vehicle control for immediate relief of itch.
A subject, having itchy eczema on their left leg, topically applied 7% N-(phosphonomethyl)-creatine cream prepared according to Example 17. […] Therapeutic evaluation was judged to be 100% effective in contrast to the untreated or vehicle control for immediate relief of itch.
A subject, having itchy eczema on their left thigh, topically applied the above 10% N-(phosphonomethyl)-glutamine. […] Therapeutic evaluation was judged to be 100% effective in contrast to the untreated or vehicle control for immediate relief of itch.

The mark [5] stands for this setting: 5% solution once every other day with occlusion, after seven days.
Where [6] appears, read: 5% solution once every other day with occlusion, after two weeks.
The mark [7] stands for this setting: 168 h, 5% cream twice daily, after one week.
The mark [8] stands for this setting: 336 h, 5% cream twice daily, end of two weeks.

On to `O=C(O)CC[C@H](NCP(=O)(O)O)C(=O)O` [N-(phosphonomethyl)-L-glutamic acid], for which the inhibition in vivo at 8 % in experiment [1] (336 h, 8% cream twice daily, end of two weeks) was found to be 50%.

Take `NC(=O)CC(NCP(=O)(O)O)C(=O)O` (racemic) [N-(phosphonomethyl)-DL-asparagine]: the “treated site lighter in skin color, clinical evaluation” value (shortened to “treated site lighter in skin color”) in experiment [2] (5% cream twice daily, after four weeks) is 50%; in experiment [2] (5% cream twice daily, after two weeks) it was 25%; in experiment [2] (setting [5]), 25%; in experiment [2] (5% solution once every other day with occlusion, after ten days) it was 50%. Besides, the inhibition in vivo at 5 % in experiment [3] (168 h) amounted to 75%; in experiment [3] (504 h), 100%.

For `NC(=O)CC[C@H](NCP(=O)(O)O)C(=O)O` [N-(phosphonomethyl)-L-glutamine], the “treated site lighter in skin color” value in experiment [2] (setting [6]) turned out to be 50%. In experiment [4] (10% cream), the “time the treated skin did not itch after application” value turned out to be 8 h; the “time until itch disappeared after topical application” value was “within a few minutes”; the “therapeutic evaluation, effective for immediate relief of itch” value was 100%. Moreover, the inhibition in vivo at 5 % in experiment [3] (336 h, 5% solution once every other day (occlusion not stated), after two weeks) worked out at 75%. Besides, the inhibition in vivo at 5 % in experiment [3] (504 h, 5% solution once every other day (occlusion not stated), after three weeks) is 100%.

In the case of `NCC(=O)NCP(=O)(O)O` [N-(phosphonomethyl)-glycinamide], the inhibition in vivo at 8 % in experiment [1] (504 h) came to 90%. Also, the “treated site lighter in skin color” value is 25% in experiment [2] (setting [5]) and 50% in experiment [2] (setting [6]). The figures for the inhibition in vivo at 5 % in experiment [3] (168 h) and in experiment [3] (504 h) were 75% and 100%, respectively.

Regarding `O=C(O)CN(CC(=O)O)CP(=O)(O)O` [N-(phosphonomethyl)imino-diacetic acid], the values for the inhibition in vivo at 5 % in experiment [3] (168 h) and in experiment [3] (336 h) were 50% and 90%, respectively.

For the molecule `O=C(O)CNCP(=O)(O)O` [N-(phosphonomethyl)-glycine], the inhibition in vivo at 5 % is 50% in experiment [3] (setting [7]) and 100% in experiment [3] (336 h, 5% cream twice daily, after two weeks).

`CCCOC(=O)CNCP(=O)(O)O` [N-(phosphonomethyl)-glycine propyl ester]: the inhibition in vivo at 5 % in experiment [1] (336 h) stood at 75%.

As to `O=P(O)(O)CNCCc1ccc(O)cc1` [N-(phosphonomethyl)-tyramine], the inhibition in vivo at 5 % in experiment [1] (setting [8]) was found to be 50%; in experiment [3] (168 h, 5% solution once every other day under occlusion, after one week) it was 75%.

Consider `O=C(O)[C@H](NCP(=O)(O)O)c1ccc(O)cc1` [N-(phosphonomethyl)-D-4-hydroxyphenylglycine], for which the inhibition in vivo at 10 % in experiment [1] (336 h, 10% cream twice daily, end of two weeks) amounted to 70%.

Regarding `CC(C)OC(=O)CNCP(=O)(O)O` [N-(phosphonomethyl)-glycine isopropyl ester], the inhibition in vivo at 5 % in experiment [1] (168 h) amounted to 50%.

As for `CCOC(=O)CNCP(=O)(O)O` [N-(phosphonomethyl)-glycine ethyl ester], in experiment [1] (336 h), the inhibition in vivo at 5 % is 50%.

`CCOC(=O)[C@H](Cc1ccc(O)cc1)NCP(=O)(O)O` [N-(phosphonomethyl)-L-tyrosine ethyl ester]: the inhibition in vivo at 5 % in experiment [1] (setting [8]) and in experiment [3] (setting [7]) was 25% throughout.

As for `O=C(O)[C@@H]1CCCN1CP(=O)(O)O` [N-(phosphonomethyl)-L-proline], the inhibition in vivo at 10 % in experiment [1] (336 h) stood at 75%.

`O=C(O)[C@H](Cc1ccc(O)cc1)NCP(=O)(O)O` [N-(phosphonomethyl)-L-tyrosine]: in experiment [3] (288 h, 5% cream twice daily, after 12 days), the inhibition in vivo at 5 % came out at 75%.

As to `CCOC(=O)[C@@H]1CCCN1CP(=O)(O)O` [N-(phosphonomethyl)-L-proline ethyl ester], in experiment [4] (8% cream), the “time the treated skin did not itch after application” value was found to be 8 h; the “time until itch disappeared after topical application” value was “within a few minutes”; the “therapeutic evaluation, effective for immediate relief of itch” value is given as 100%.
